Measured values published in US8158621B2, “Methods of treating or preventing autoimmune diseases with 2,4-pyrimidinediamine compounds” (Rigel Pharmaceuticals, Inc., priority 2002, dated 2012).

What follows are compounds tested on cultured human mast cells (CHMC) (assay: CHMC low cell density ionomycin activation: tryptase assay). Settings: low cell density; read-out: CHMC Ionomycin Tryptase.
Type: cell-based
`CNC(=O)C1Cc2cc(Nc3ncc(F)c(Nc4ccc5c(c4)NC(=O)C(F)(F)O5)n3)ccc2O1` (racemic) [Compound R927049] gave an IC50 of over 10000 nM.
For `COc1ccc(Nc2ncc(F)c(Nc3ccc4c(c3)C(N)CCO4)n2)cc1Cl` (racemic) [Compound R950428], the IC50 was 21000 nM.
With `C[C@@H]1Oc2ccc(Nc3ncc(F)c(Nc4ccc5c(c4)NC(=O)[C@H](C)O5)n3)cc2NC1=O` [Compound R908952] the IC50 was 6070 nM.
`COc1ccc(Nc2ncc(F)c(Nc3ccc4c(c3)NC(=O)[C@H](C)O4)n2)cc1Cl` [Compound R909321] was tested, and the IC50 was 30000 nM.
For `COc1cc(Nc2ncc(F)c(Nc3ccc4c(c3)NC(=O)C(F)(F)O4)n2)cc(OC)c1` [Compound R926970], the IC50 was over 10000 nM.
`Fc1cnc(Nc2ccc3cc[nH]c3c2)nc1Nc1ccc(Cl)c(Cl)c1` [Compound R926975] showed an IC50 of 30200 nM.
Compound `O=C1Nc2cc(Nc3nc(Nc4ccc5cc[nH]c5c4)ncc3F)ccc2OC1(F)F` [Compound R926977] has an IC50 of over 10000 nM.
Work on `CN(C)Cc1cc2cc(Nc3ncc(F)c(Nc4ccc5c(c4)NC(=O)C(F)(F)O5)n3)ccc2o1` [Compound R926979] yielded an IC50 of 23500 nM.
For `COc1ccc(Nc2ncc(F)c(Nc3ccc4c(c3)NC(=O)C(F)(F)O4)n2)cc1Cl` [Compound R926981], the IC50 was over 10000 nM.
For `CN(C)C(=O)C1Cc2cc(Nc3ncc(F)c(Nc4ccc5c(c4)NC(=O)C(F)(F)O5)n3)ccc2O1` (stereo not shown) [Compound R926983], the IC50 was over 10000 nM.
With `COc1cc(Nc2ncc(F)c(Nc3ccc4c(c3)NC(=O)C(F)(F)O4)n2)cc(C(F)(F)F)c1` [Compound R926984] the IC50 was over 10000 nM.
With `O=C1Nc2cc(Nc3nc(Nc4cc(Cl)cc(Cl)c4)ncc3F)ccc2OC1(F)F` [Compound R926985] the IC50 was 4130 nM.
Work on `O=C1Nc2cc(Nc3nc(Nc4cc(Cl)c(O)c(Cl)c4)ncc3F)ccc2OC1(F)F` [Compound R927048] yielded an IC50 of over 10000 nM.
For `CC1(C)Oc2ccc(Nc3nc(Nc4cc(Cl)c(O)c(Cl)c4)ncc3F)cc2NC1=O` [Compound R927051], the IC50 was 12600 nM.
`COc1cc(Nc2ncc(F)c(Nc3ccc(Cl)c(Cl)c3)n2)cc(OC)c1` [Compound R927060] gave an IC50 of 5170 nM.
With `COc1cc(Nc2ncc(F)c(Nc3ccc4c(n3)NC(=O)CO4)n2)cc(OC)c1` [Compound R945401] the IC50 was over 10000 nM.
`CCN(C(C)=O)c1ccc(Nc2ncc(F)c(Nc3ccc4c(n3)NC(=O)C(C)(C)O4)n2)cc1` [Compound R945418] was tested, and the IC50 was over 10000 nM.

What follows are compounds tested on Human Jurkat T-cells (clone N) (assay: Jurkat T-cell activation (anti-TCR, CD69 upregulation)). Settings: not given.
Type: cell-based
Procedure, shortened: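 Jurkat cells in RPMI + 5% FBS preincubated with compound 1 h at 37 °C, then stimulated with anti-TCR C305 at 500 ng/ml for 20 h. CD69 surface expression stained with anti-CD69-APC and read by flow cytometry; IC50 versus solvent-only control.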
For `COc1ccc(Nc2nc(Nc3cc(C)c(O)c(Cl)c3)ncc2F)cc1Cl` [Compound R926968], the IC50 was 2020 nM.
In the case of `Fc1cnc(Nc2ccc3[nH]ncc3c2)nc1Nc1ccc2[nH]ncc2c1` [Compound R935189], the IC50 is reported as 736 nM.
For `Cn1ncc2cc(Nc3ncc(F)c(Nc4ccc5c(c4)OCCO5)n3)ccc21` [Compound R935193], the IC50 was 1600 nM.
`CNC(=O)COc1cccc(Nc2ncc(F)c(Nc3ccc4c(c3)OCCCO4)n2)c1` [Compound R935202] gave an IC50 of 1940 nM.
`Fc1cnc(Nc2ccc3[nH]ncc3c2)nc1Nc1ccc(OC(F)(F)F)c(Cl)c1` [Compound R935366] gave an IC50 of 4180 nM.
Compound `COC(=O)c1cc2cc(Nc3ncc(F)c(Nc4ccc5c(c4)NC(=O)C(F)(F)O5)n3)ccc2o1` [Compound R940353] has an IC50 of 20700 nM.
In the case of `CNC(=O)COc1cccc(Nc2ncc(F)c(Nc3ccc4c(n3)NCCO4)n2)c1` [Compound R945299], the IC50 is reported as 1060 nM.
For `CNC(=O)COc1cccc(Nc2ncc(F)c(Nc3ccc4c(c3)C(O)CCO4)n2)c1` (stereo not shown) [Compound R950349], the IC50 was 363 nM.

What follows are compounds tested against T1, Syk kinase (Homo sapiens, UniProt P43405) (assay: Syk kinase biochemical fluorescence polarization assay). Settings: isolated Syk kinase, fluorescence polarization, 4 uM ATP.
T1 construct: purchased Upstate, Lake Placid NY
`CNC(=O)C1Cc2cc(Nc3ncc(F)c(Nc4ccc5c(c4)NC(=O)C(F)(F)O5)n3)ccc2O1` (racemic) [Compound R927049] showed an IC50 of 4 nM.
With `COc1ccc(Nc2ncc(F)c(Nc3ccc4c(c3)C(N)CCO4)n2)cc1Cl` (racemic) [Compound R950428] the IC50 was 127 nM.
In the case of `NC1CCOc2ccc(Nc3nc(Nc4ccc(Cl)c(Cl)c4)ncc3F)cc21` (racemic) [Compound R950430], the IC50 is reported as 150 nM.
Compound `C[C@@H]1Oc2ccc(Nc3ncc(F)c(Nc4ccc5c(c4)NC(=O)[C@H](C)O5)n3)cc2NC1=O` [Compound R908952] has an IC50 of 41 nM.
For `CC1(C)C(=O)NC(=O)c2cc(Nc3nc(Nc4ccc5cn[nH]c5c4)ncc3F)ccc21` [Compound R908956], the IC50 was 1180 nM.
Compound `COc1ccc(Nc2ncc(F)c(Nc3ccc4c(c3)NC(=O)[C@H](C)O4)n2)cc1Cl` [Compound R909321] has an IC50 of 104 nM.
Compound `COc1ccc(Nc2nc(Nc3cc(C)c(O)c(Cl)c3)ncc2F)cc1Cl` [Compound R926968] has an IC50 of 235 nM.
`COc1cc(Nc2ncc(F)c(Nc3ccc4c(c3)NC(=O)C(F)(F)O4)n2)cc(OC)c1` [Compound R926970] gave an IC50 of 57 nM.
Work on `Fc1cnc(Nc2ccc3cc[nH]c3c2)nc1Nc1ccc(Cl)c(Cl)c1` [Compound R926975] yielded an IC50 of 767 nM.
For `O=C1Nc2cc(Nc3nc(Nc4ccc5cc[nH]c5c4)ncc3F)ccc2OC1(F)F` [Compound R926977], the IC50 was 7 nM.
In the case of `CN(C)Cc1cc2cc(Nc3ncc(F)c(Nc4ccc5c(c4)NC(=O)C(F)(F)O5)n3)ccc2o1` [Compound R926979], the IC50 is reported as 13 nM.
With `COc1ccc(Nc2ncc(F)c(Nc3ccc4c(c3)NC(=O)C(F)(F)O4)n2)cc1Cl` [Compound R926981] the IC50 was 10 nM.
Compound `CN(C)C(=O)C1Cc2cc(Nc3ncc(F)c(Nc4ccc5c(c4)NC(=O)C(F)(F)O5)n3)ccc2O1` (stereo not shown) [Compound R926983] has an IC50 of 12 nM.
`COc1cc(Nc2ncc(F)c(Nc3ccc4c(c3)NC(=O)C(F)(F)O4)n2)cc(C(F)(F)F)c1` [Compound R926984] showed an IC50 of 459 nM.
In the case of `O=C1Nc2cc(Nc3nc(Nc4cc(Cl)cc(Cl)c4)ncc3F)ccc2OC1(F)F` [Compound R926985], the IC50 is reported as 203 nM.
`O=C1Nc2cc(Nc3nc(Nc4cc(Cl)c(O)c(Cl)c4)ncc3F)ccc2OC1(F)F` [Compound R927048] was tested, and the IC50 was 2 nM.
`CC1(C)Oc2ccc(Nc3nc(Nc4cc(Cl)c(O)c(Cl)c4)ncc3F)cc2NC1=O` [Compound R927051] showed an IC50 of 10 nM.
For `COc1cc(Nc2ncc(F)c(Nc3ccc(Cl)c(Cl)c3)n2)cc(OC)c1` [Compound R927060], the IC50 was 620 nM.
For `Cc1cccc(C)c1Nc1ncc(F)c(Nc2cccc(N)n2)n1` [Compound R927078], the IC50 was 222 nM.
With `CNC(=O)COc1cccc(Nc2ncc(F)c(Nc3cccc(N)n3)n2)c1` [Compound R927080] the IC50 was 254 nM.
In the case of `Fc1cnc(Nc2ccc3[nH]ncc3c2)nc1Nc1ccc2[nH]ncc2c1` [Compound R935189], the IC50 is reported as 354 nM.
`Cn1ncc2cc(Nc3ncc(F)c(Nc4ccc5c(c4)OCCO5)n3)ccc21` [Compound R935193] gave an IC50 of 110 nM.
In the case of `CNC(=O)COc1cccc(Nc2ncc(F)c(Nc3ccc4c(c3)OCCCO4)n2)c1` [Compound R935202], the IC50 is reported as 35 nM.
`Fc1cnc(Nc2ccc3[nH]ncc3c2)nc1Nc1ccc(OC(F)(F)F)c(Cl)c1` [Compound R935366] gave an IC50 of 380 nM.
`COC(=O)c1cc2cc(Nc3ncc(F)c(Nc4ccc5c(c4)NC(=O)C(F)(F)O5)n3)ccc2o1` [Compound R940353] showed an IC50 of 325 nM.
In the case of `CNC(=O)COc1cccc(Nc2ncc(F)c(Nc3ccc4c(n3)NCCO4)n2)c1` [Compound R945299], the IC50 is reported as 22 nM.
For `COc1cc(Nc2ncc(F)c(Nc3ccc4c(n3)NC(=O)CO4)n2)cc(OC)c1` [Compound R945401], the IC50 was 7 nM.
Work on `CCN(C(C)=O)c1ccc(Nc2ncc(F)c(Nc3ccc4c(n3)NC(=O)C(C)(C)O4)n2)cc1` [Compound R945418] yielded an IC50 of over 10000 nM.
`CNC(=O)COc1cccc(Nc2ncc(F)c(Nc3ccc4c(c3)C(O)CCO4)n2)c1` (stereo not shown) [Compound R950349] gave an IC50 of 33 nM.

Each compound was assayed on cultured human mast cells (CHMC) (assay: CHMC low cell density IgE activation: tryptase assay). Settings: low cell density; read-out: CHMC anti-IgE Tryptase.
Type: cell-based
Procedure, shortened: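 Cultured human mast cells (1000-1500 cells/well, donor-dependent) equilibrated 1 hr at 37° C, then stimulated with anti-IgE for 30 min at 37° C. Tryptase released into the supernatant is measured with a fluorogenic tryptase substrate after 30 min at room temperature.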
`CNC(=O)C1Cc2cc(Nc3ncc(F)c(Nc4ccc5c(c4)NC(=O)C(F)(F)O5)n3)ccc2O1` (racemic) [Compound R927049] showed an IC50 of 110 nM.
Work on `COc1ccc(Nc2ncc(F)c(Nc3ccc4c(c3)C(N)CCO4)n2)cc1Cl` (racemic) [Compound R950428] yielded an IC50 of 123 nM.
Compound `NC1CCOc2ccc(Nc3nc(Nc4ccc(Cl)c(Cl)c4)ncc3F)cc21` (racemic) [Compound R950430] has an IC50 of 239 nM.
Work on `C[C@@H]1Oc2ccc(Nc3ncc(F)c(Nc4ccc5c(c4)NC(=O)[C@H](C)O5)n3)cc2NC1=O` [Compound R908952] yielded an IC50 of 80 nM.
With `CC1(C)C(=O)NC(=O)c2cc(Nc3nc(Nc4ccc5cn[nH]c5c4)ncc3F)ccc21` [Compound R908956] the IC50 was 340 nM.
`COc1ccc(Nc2ncc(F)c(Nc3ccc4c(c3)NC(=O)[C@H](C)O4)n2)cc1Cl` [Compound R909321] showed an IC50 of 163 nM.
Work on `COc1ccc(Nc2nc(Nc3cc(C)c(O)c(Cl)c3)ncc2F)cc1Cl` [Compound R926968] yielded an IC50 of 249 nM.
Compound `COc1cc(Nc2ncc(F)c(Nc3ccc4c(c3)NC(=O)C(F)(F)O4)n2)cc(OC)c1` [Compound R926970] has an IC50 of 60 nM.
Compound `Fc1cnc(Nc2ccc3cc[nH]c3c2)nc1Nc1ccc(Cl)c(Cl)c1` [Compound R926975] has an IC50 of 421 nM.
Compound `O=C1Nc2cc(Nc3nc(Nc4ccc5cc[nH]c5c4)ncc3F)ccc2OC1(F)F` [Compound R926977] has an IC50 of 35.9 nM.
With `CN(C)Cc1cc2cc(Nc3ncc(F)c(Nc4ccc5c(c4)NC(=O)C(F)(F)O5)n3)ccc2o1` [Compound R926979] the IC50 was 109 nM.
Compound `COc1ccc(Nc2ncc(F)c(Nc3ccc4c(c3)NC(=O)C(F)(F)O4)n2)cc1Cl` [Compound R926981] has an IC50 of 137 nM.
With `CN(C)C(=O)C1Cc2cc(Nc3ncc(F)c(Nc4ccc5c(c4)NC(=O)C(F)(F)O5)n3)ccc2O1` (stereo not shown) [Compound R926983] the IC50 was 195 nM.
Work on `COc1cc(Nc2ncc(F)c(Nc3ccc4c(c3)NC(=O)C(F)(F)O4)n2)cc(C(F)(F)F)c1` [Compound R926984] yielded an IC50 of 167 nM.
In the case of `O=C1Nc2cc(Nc3nc(Nc4cc(Cl)cc(Cl)c4)ncc3F)ccc2OC1(F)F` [Compound R926985], the IC50 is reported as 140 nM.
With `O=C1Nc2cc(Nc3nc(Nc4cc(Cl)c(O)c(Cl)c4)ncc3F)ccc2OC1(F)F` [Compound R927048] the IC50 was 50 nM.
Compound `COc1cc(Nc2ncc(F)c(Nc3ccc(Cl)c(Cl)c3)n2)cc(OC)c1` [Compound R927060] has an IC50 of 222 nM.
For `Cc1cccc(C)c1Nc1ncc(F)c(Nc2cccc(N)n2)n1` [Compound R927078], the IC50 was 245 nM.
`CNC(=O)COc1cccc(Nc2ncc(F)c(Nc3cccc(N)n3)n2)c1` [Compound R927080] gave an IC50 of 204 nM.
